Results reported in US20160237067A1, “SUBSTITUTED PHENYLALANINE DERIVATIVES” (BAYER PHARMA AKTIENGESELLSCHAFT, priority 2013, published 2016).
Where a name gives a salt, the structure may show the parent alone.

Key:
human factor XIa = molecular target: T1, human factor XIa (Homo sapiens, UniProt P03951); test: Measurement of FXIa inhibition (fluorogenic peptide substrate Boc-Glu(OBzl)-Ala-Arg-AMC); type: biochemical; details: factor XIa from Kordia 0.45 nM; 15 min preincubation; 30 min at 22° C.
T1 construct: purchased Kordia
Protocol: The factor XIa inhibition of the substances according to the invention is determined using a biochemical test system which utilizes the reaction of a peptidic factor XIa substrate to determine the enzymatic activity of human factor XIa. Here, factor XIa cleaves from the peptic factor XIa substrate the C-terminal aminomethylcoumarin (AMC), the fluorescence of which is measured. The determinations are carried out in microtitre plates.
Test substances are dissolved in dimethyl sulphoxide and serially diluted in dimethyl sulphoxide (3000 μM to 0.0078 μM; resulting final concentrations in the test: 50 μM to 0.00013 μM). In each case 1 μl of the diluted substance solutions is placed into the wells of white microtitre plates from Greiner (384 wells). Subsequently, the following are added successively: 20 μl of assay buffer (50 mmol/l Tris buffer pH 7.4; 100 mmol/l sodium chloride; 5 mmol/l calcium chloride; 0.1% bovine serum albumin) and 20 μl of factor XIa from Kordia (0.45 nM in assay buffer). After 15 min of incubation, the enzyme reaction is started by addition of 20 μl of the factor XIa substrate Boc-Glu(OBzl)-Ala-Arg-AMC dissolved in assay buffer (10 μM in assay buffer) from Bachem, the mixture is incubated at room temperature (22° C.) for 30 min and fluorescence is then measured (excitation: 360 nm, emission: 460 nm). The measured emissions of the test batches with test substance are compared to those of control batches without test substance (only dimethyl sulphoxide instead of test substance in dimethyl sulphoxide), and IC50 values are calculated from the concentration/activity relationships.

human and animal plasma = test: Determination of anticoagulatory activity: activated partial thromboplastin time (aPTT) in plasma; type: biochemical; details: C.K. Prest kit, 37° C., 3 minutes incubation, plasma species of Table B not stated
Protocol: The anticoagulatory activity of the test substances is determined in vitro in human and animal plasma (for example mouse, rat, rabbit, pig and dog plasma). To this end, blood is drawn off in a mixing ratio of sodium citrate/blood of 1:9 using a 0.11 molar sodium citrate solution as receiver. Immediately after the blood has been drawn off, it is mixed thoroughly and centrifuged at about 4000 g for 15 minutes. The supernatant is pipetted off.
The activated partial thromboplastin time (aPTT) is determined in the presence of varying concentrations of test substance or the corresponding solvent using a commercial test kit (C.K. Prest from Diagnostica Stago). The test compounds are incubated with the plasma and the PTT reagent (cephalin, kaolin) at 37° C. for 3 minutes. Coagulation is then started by addition of a 25 mM aqueous calcium chloride solution, and the time when coagulation occurs is determined. The concentration of test substance which brings about a 1.5-fold extension of the aPTT is determined Activity data from this test are listed in Table B below: […]

T1 sequence (P03951 388-625 limits assumed): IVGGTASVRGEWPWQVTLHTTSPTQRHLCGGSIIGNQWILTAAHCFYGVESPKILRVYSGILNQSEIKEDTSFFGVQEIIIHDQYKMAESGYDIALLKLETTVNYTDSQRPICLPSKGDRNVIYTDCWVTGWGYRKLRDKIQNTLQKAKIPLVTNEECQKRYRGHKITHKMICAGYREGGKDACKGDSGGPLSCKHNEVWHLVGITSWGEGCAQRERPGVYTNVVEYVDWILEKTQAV
T1 sequence (P03951 19-387 partner limits assumed): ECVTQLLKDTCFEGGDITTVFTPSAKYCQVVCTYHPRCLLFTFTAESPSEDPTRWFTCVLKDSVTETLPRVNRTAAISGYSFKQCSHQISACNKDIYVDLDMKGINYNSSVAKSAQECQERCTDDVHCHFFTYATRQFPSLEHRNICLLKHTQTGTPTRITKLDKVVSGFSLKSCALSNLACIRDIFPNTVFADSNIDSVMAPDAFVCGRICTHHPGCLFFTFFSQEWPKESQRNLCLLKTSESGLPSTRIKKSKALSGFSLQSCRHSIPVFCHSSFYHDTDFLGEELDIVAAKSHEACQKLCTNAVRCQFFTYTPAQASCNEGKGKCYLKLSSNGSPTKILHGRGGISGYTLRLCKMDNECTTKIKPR

**Q.** How did the IC50 (human factor XIa) turn out when `Cc1ccc(C(=O)NC2CCNC(=O)C2)cc1-c1ccc(C[C@H](NC(=O)[C@H]2CC[C@H](CN)CC2)C(=O)Nc2ccc(-c3nn[nH]n3)cc2)cc1` (stereo partly drawn) [Example 36, 4′-[(2S)-2-({[trans-4-(Aminomethyl)cyclohexyl]carbonyl}amino)-3-oxo-3-{[4-(2H-tetrazol-5-yl)phenyl]amino}propyl]-6-methyl-N-(2-oxopiperidin-4-yl)biphenyl-3-carboxamide hydrochloride] was run?
**A.** 1.9 nM

**Q.** And the “aPTT (concentration of test substance which brings about a 1.5-fold extension of the aPTT)” value (human and animal plasma)?
**A.** 0.14 µmol/L

**Q.** With `Cc1ccc(S(=O)(=O)N(C)C)cc1-c1ccc(C[C@H](NC(=O)[C@H]2CC[C@H](CN)CC2)C(=O)Nc2ccc3[nH]c(=O)[nH]c3c2)cc1` [Example 25, trans-4-(Aminomethyl)-N-{(2S)-3-[5′-(dimethylsulphamoyl)-2′-methylbiphenyl-4-yl]-1-oxo-1-[(2-oxo-2,3-dihydro-1H-benzimidazol-5-yl)amino]propan-2-yl}cyclohexanecarboxamide hydrochloride] as the compound, how does the IC50 (human factor XIa) read?
**A.** 6.1 nM

**Q.** What about the “aPTT (concentration of test substance which brings about a 1.5-fold extension of the aPTT)” value (human and animal plasma) of the same compound?
**A.** 0.15 µmol/L

**Q.** `CCN(CC)CCCNC(=O)c1ccc(C)c(-c2ccc(C[C@H](NC(=O)[C@H]3CC[C@H](CN)CC3)C(=O)Nc3ccc(-c4nn[nH]n4)cc3)cc2)c1` [Example 19, 4′-[(2S)-2-({[trans-4-(Aminomethyl)cyclohexyl]carbonyl}amino)-3-oxo-3-{[4-(2H-tetrazol-5-yl)phenyl]amino}propyl]-N-[3-(diethylamino)propyl]-6-methylbiphenyl-3-carboxamide hydrochloride] was tested. Which IC50 (human factor XIa) did it give?
**A.** 6.4 nM

**Q.** What about the “aPTT (concentration of test substance which brings about a 1.5-fold extension of the aPTT)” value (human and animal plasma) of the same compound?
**A.** 0.26 µmol/L

**Q.** For `Cc1ccc(S(=O)(=O)N(C)C)cc1-c1ccc(C[C@H](NC(=O)[C@H]2CC[C@H](CN)CC2)C(=O)Nc2ccc(-c3nnn[nH]3)cc2)cc1` [Example 1, trans-4-(Aminomethyl)-N-[(2S)-3-[5′-(dimethylsulphamoyl)-2′-methylbiphenyl-4-yl]-1-oxo-1-{[4-(1H-tetrazol-5-yl)phenyl]amino}propan-2-yl]cyclohexanecarboxamide hydrochloride], which IC50 (human factor XIa) is on record?
**A.** 0.5 nM

**Q.** And the “aPTT (concentration of test substance which brings about a 1.5-fold extension of the aPTT)” value (human and animal plasma)?
**A.** 0.16 µmol/L

**Q.** `Cc1cc(C)c(-c2ccc(C[C@H](NC(=O)[C@H]3CC[C@H](CN)CC3)C(=O)Nc3ccc(-c4nn[nH]n4)cc3)cc2)cc1C(=O)N(C)C` [Example 39, 4′-[(2S)-2-({[trans-4-(Aminomethyl)cyclohexyl]carbonyl}amino)-3-oxo-3-{[4-(2H-tetrazol-5-yl)phenyl]amino}propyl]-N,N,4,6-tetramethylbiphenyl-3-carboxamide hydrochloride] was tested. Which IC50 (human factor XIa) did it give?
**A.** 3.3 nM

**Q.** With `COc1ccc(-c2ccc(C[C@H](NC(=O)[C@H]3CC[C@H](CN)CC3)C(=O)Nc3ccc(-c4nnn[nH]4)cc3)cc2)cc1S(=O)(=O)N1CCOCC1` [Example 24, trans-4-(Aminomethyl)-N-[(2S)-3-[4′-methoxy-3′-(morpholin-4-ylsulphonyl)biphenyl-4-yl]-1-oxo-1-{[4-(1H-tetrazol-5-yl)phenyl]amino}propan-2-yl]cyclohexanecarboxamide hydrochloride] as the compound, how does the IC50 (human factor XIa) read?
**A.** 2 nM

**Q.** And the “aPTT (concentration of test substance which brings about a 1.5-fold extension of the aPTT)” value (human and animal plasma)?
**A.** 0.09 µmol/L

**Q.** How did the IC50 (human factor XIa) turn out when `Cc1c(F)cc(C(=O)NC(C)C)cc1-c1ccc(C[C@H](NC(=O)[C@H]2CC[C@H](CN)CC2)C(=O)Nc2ccc(-c3nn[nH]n3)cc2)cc1` [Example 30, 4′-[(2S)-2-({[trans-4-(Aminomethyl)cyclohexyl]carbonyl}amino)-3-oxo-3-{[4-(2H-tetrazol-5-yl)phenyl]amino}propyl]-5-fluoro-N-isopropyl-6-methylbiphenyl-3-carboxamide hydrochloride] was run?
**A.** 2.7 nM

**Q.** And the “aPTT (concentration of test substance which brings about a 1.5-fold extension of the aPTT)” value (human and animal plasma)?
**A.** 0.2 µmol/L

**Q.** With `Cc1ccc(S(=O)(=O)N(C)C)cc1-c1ccc(C[C@H](NC(=O)[C@H]2CC[C@H](CN)CC2)C(=O)Nc2ccc(-c3nnc(Cl)[nH]3)cc2)cc1` [Example 3, trans-4-(Aminomethyl)-N-{(2S)-1-{[4-(5-chloro-4H-1,2,4-triazol-3-yl)phenyl]amino}-3-[5′-(dimethylsulphamoyl)-2′-methylbiphenyl-4-yl]-1-oxopropan-2-yl}cyclohexanecarboxamide hydrochloride] as the compound, how does the IC50 (human factor XIa) read?
**A.** 2.8 nM

**Q.** What about the “aPTT (concentration of test substance which brings about a 1.5-fold extension of the aPTT)” value (human and animal plasma) of the same compound?
**A.** 0.19 µmol/L

**Q.** Which results are given for `Cc1ccc(S(=O)(=O)N2CCOCC2)cc1-c1ccc(C[C@H](NC(=O)[C@H]2CC[C@H](CN)CC2)C(=O)Nc2ccc3[nH]c(=O)[nH]c3c2)cc1` [Example 26, trans-4-(Aminomethyl)-N-{(2S)-3-[2′-methyl-5′-(morpholin-4-ylsulphonyl)biphenyl-4-yl]-1-oxo-1-[(2-oxo-2,3-dihydro-1H-benzimidazol-5-yl)amino]propan-2-yl}cyclohexanecarboxamide hydrochloride]?
**A.** IC50 (human factor XIa): 6.1 nM; aPTT (concentration of test substance which brings about a 1.5-fold extension of the aPTT) (human and animal plasma): 0.18 µmol/L

**Q.** What does the source list for `CCN(CC)CCNC(=O)c1cccc(-c2ccc(C[C@H](NC(=O)[C@H]3CC[C@H](CN)CC3)C(=O)Nc3ccc(-c4nn[nH]n4)cc3)cc2)c1` [Example 14, 4′-[(2S)-2-({[trans-4-(Aminomethyl)cyclohexyl]carbonyl}amino)-3-oxo-3-{[4-(2H-tetrazol-5-yl)phenyl]amino}propyl]-N-[2-(diethylamino)ethyl]biphenyl-3-carboxamide hydrochloride]?
**A.** IC50 (human factor XIa): 15 nM; aPTT (concentration of test substance which brings about a 1.5-fold extension of the aPTT) (human and animal plasma): 0.35 µmol/L

**Q.** With `CNC(=O)c1ccc(C)c(-c2ccc(C[C@H](NC(=O)[C@H]3CC[C@H](CN)CC3)C(=O)Nc3ccc(-c4nnc(C(F)(F)C(F)(F)C(=O)O)[nH]4)cc3)cc2)c1` [Example 41, 3-{5-[4-({(2S)-2-({[trans-4-(Aminomethyl)cyclohexyl]carbonyl}amino)-3-[2′-methyl-5′-(methylcarbamoyl)biphenyl-4-yl]propanoyl}amino)phenyl]-4H-1,2,4-triazol-3-yl}-2,2,3,3-tetrafluoropropanoic acid hydrochloride] as the compound, how does the IC50 (human factor XIa) read?
**A.** 2.8 nM

**Q.** How did the IC50 (human factor XIa) turn out when `CCc1ccc(C(=O)NCCN(CC)CC)cc1-c1ccc(C[C@H](NC(=O)[C@H]2CC[C@H](CN)CC2)C(=O)Nc2ccc(-c3nn[nH]n3)cc2)cc1` [Example 23, 4′-[(2S)-2-({[trans-4-(Aminomethyl)cyclohexyl]carbonyl}amino)-3-oxo-3-{[4-(2H-tetrazol-5-yl)phenyl]amino}propyl]-N-[2-(diethylamino)ethyl]-6-ethylbiphenyl-3-carboxamide hydrochloride] was run?
**A.** 13 nM

**Q.** And the “aPTT (concentration of test substance which brings about a 1.5-fold extension of the aPTT)” value (human and animal plasma)?
**A.** 0.36 µmol/L

**Q.** Which IC50 (human factor XIa) does the source give for `Cc1cc(C(=O)NC2CCNCC2)cc(-c2ccc(C[C@H](NC(=O)[C@H]3CC[C@H](CN)CC3)C(=O)Nc3ccc(-c4nn[nH]n4)cc3)cc2)c1` [Example 40, 4′-[(2S)-2-({[trans-4-(Aminomethyl)cyclohexyl]carbonyl}amino)-3-oxo-3-{[4-(2H-tetrazol-5-yl)phenyl]amino}propyl]-5-methyl-N-(piperidin-4-yl)biphenyl-3-carboxamide hydrochloride] here?
**A.** 4.1 nM

**Q.** What about the “aPTT (concentration of test substance which brings about a 1.5-fold extension of the aPTT)” value (human and animal plasma) of the same compound?
**A.** 0.06 µmol/L

**Q.** For `Cc1ccc(C(=O)NC2CCNCC2)cc1-c1ccc(C[C@H](NC(=O)[C@H]2CC[C@H](CN)CC2)C(=O)Nc2ccc(-c3nn[nH]n3)cc2)cc1` [Example 9, hydrochloride], which IC50 (human factor XIa) is on record?
**A.** 7.4 nM

**Q.** What about the “aPTT (concentration of test substance which brings about a 1.5-fold extension of the aPTT)” value (human and animal plasma) of the same compound?
**A.** 0.08 µmol/L

**Q.** How did the IC50 (human factor XIa) turn out when `NC[C@H]1CC[C@H](C(=O)N[C@@H](Cc2ccc(-c3cccc(C(=O)N[C@@H]4CCNC4)c3F)cc2)C(=O)Nc2ccc(-c3nn[nH]n3)cc2)CC1` [Example 17, 4′-[(2S)-2-({[trans-4-(Aminomethyl)cyclohexyl]carbonyl}amino)-3-oxo-3-{[4-(2H-tetrazol-5-yl)phenyl]amino}propyl]-2-fluoro-N-[(3R)-pyrrolidin-3-yl]biphenyl-3-carboxamide hydrochloride] was run?
**A.** 9.3 nM

**Q.** What about the “aPTT (concentration of test substance which brings about a 1.5-fold extension of the aPTT)” value (human and animal plasma) of the same compound?
**A.** 0.58 µmol/L

**Q.** `Cc1ccc(S(=O)(=O)N2CCOCC2)cc1-c1ccc(C[C@H](NC(=O)[C@H]2CC[C@H](CN)CC2)C(=O)Nc2ccc(-c3nnn[nH]3)cc2)cc1` [Example 2, trans-4-(Aminomethyl)-N-[(2S)-3-[2′-methyl-5′-(morpholin-4-ylsulphonyl)biphenyl-4-yl]-1-oxo-1-{[4-(1H-tetrazol-5-yl)phenyl]amino}propan-2-yl]cyclohexanecarboxamide hydrochloride] was tested. Which IC50 (human factor XIa) did it give?
**A.** 0.1 nM

**Q.** What about the “aPTT (concentration of test substance which brings about a 1.5-fold extension of the aPTT)” value (human and animal plasma) of the same compound?
**A.** 0.22 µmol/L
